From ChEMBL document CHEMBL1275374, “Ligand-based virtual screening and ADME-tox guided approach to identify triazolo-quinoxalines as folate cycle inhibitors” (Bioorg Med Chem, 2010)
The source made the active and inactive calls. The rule behind the calls is not given here.

How the values were obtained:
[1] = Solubility of the compound in dimethyl sulfoxide; assay type: physicochemical
Thymidylate synthase [2] = target: T1, Thymidylate synthase (Homo sapiens, UniProt P04818); assay: Inhibition of human thymidylate synthase expressed in Escherichia coli BL21 at 50 uM
Target sequence in this assay (P04818 2-313 limits assumed): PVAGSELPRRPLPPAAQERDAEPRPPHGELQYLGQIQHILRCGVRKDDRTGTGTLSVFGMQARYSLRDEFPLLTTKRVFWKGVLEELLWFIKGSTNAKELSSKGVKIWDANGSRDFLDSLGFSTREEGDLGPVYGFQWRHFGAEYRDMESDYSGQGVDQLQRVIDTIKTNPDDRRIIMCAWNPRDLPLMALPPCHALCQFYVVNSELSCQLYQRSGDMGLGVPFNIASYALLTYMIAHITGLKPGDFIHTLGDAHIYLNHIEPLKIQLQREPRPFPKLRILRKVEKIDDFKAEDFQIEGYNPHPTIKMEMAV

A2780 [3] = assay: Cytotoxicity against human cDDP-sensitive A2780 cells after 72 hrs using crystal violet staining by spectrophotometric analysis; assay type: cell-based; details: A2780, 72 h
2008 [4] = assay: Cytotoxicity against human cDDP-sensitive 2008 cells after 72 hrs using crystal violet staining by spectrophotometric analysis; assay type: cell-based; details: Homo sapiens, 2008, 72 h
Vero = assay: Cytotoxicity against african green monkey Vero cells after 72 hrs using crystal violet staining by spectrophotometric analysis; assay type: cell-based; details: Chlorocebus sabaeus
[5] = Cytotoxicity against human cDDP-resistant C13 cells after 72 hrs using crystal violet staining by spectrophotometric analysis; assay type: cell-based; details: C13, 72 h
A2780 [6] = assay: Cytotoxicity against human cDDP-resistant A2780 cells after 72 hrs using crystal violet staining by spectrophotometric analysis; assay type: cell-based; details: A2780, 72 h
[7] = Induction of ROS accumulation in human cDDP-resistant C13 cells at IC50 concentration after 72 hrs […]; assay type: cell-based; details: c13, 72 h
Thymidylate synthase [8] = target: T1, Thymidylate synthase; assay: Inhibition of thymidylate synthase catalytic activity in human cDDP-resistant C13 cells after 72 hrs by Western blotting (reference value: 12.9 +/- 0.6%); assay type: cell-based; details: concentration not given here
Target sequence in this assay (P04818 2-313 limits assumed): as above

2008 [9] = assay: Induction of ROS accumulation in human cDDP-sensitive 2008 cells at IC50 concentration after 72 hrs […]; assay type: cell-based; details: human, 2008, 72 h
Thymidylate synthase [10] = target: T1, Thymidylate synthase; assay: Inhibition of thymidylate synthase catalytic activity in human cDDP-sensitive 2008 cells after 72 hrs by Western blotting (reference value: 38.8 +/- 3.9%); assay type: cell-based; details: concentration not given here
Target sequence in this assay (P04818 2-313 limits assumed): as above

C13 = assay: Inhibition of DHFR protein expression in human cDDP-resistant C13 cells after 72 hrs by Western blotting; assay type: functional, cell-based
[11] = Inhibition of thymidylate synthase protein expression in human cDDP-resistant C13 cells after 72 hrs by Western blotting; assay type: functional, cell-based
2008 [12] = assay: Inhibition of DHFR protein expression in human cDDP-sensitive 2008 cells after 72 hrs by Western blotting; assay type: functional, cell-based
2008 [13] = assay: Inhibition of thymidylate synthase protein expression in human cDDP-sensitive 2008 cells after 72 hrs by Western blotting; assay type: functional, cell-based
Thymidylate synthase [14] = target: T1, Thymidylate synthase; assay: Inhibition of human thymidylate synthase expressed in Escherichia coli BL21 at 100 uM
Target sequence in this assay (P04818 2-313 limits assumed): as above

[15] = target: T2, Dihydrofolate reductase (Homo sapiens) (UniProt P00374); assay: Inhibition of human DHFR expressed in Escherichia coli BL21 at 100 uM
T2 sequence (whole entry): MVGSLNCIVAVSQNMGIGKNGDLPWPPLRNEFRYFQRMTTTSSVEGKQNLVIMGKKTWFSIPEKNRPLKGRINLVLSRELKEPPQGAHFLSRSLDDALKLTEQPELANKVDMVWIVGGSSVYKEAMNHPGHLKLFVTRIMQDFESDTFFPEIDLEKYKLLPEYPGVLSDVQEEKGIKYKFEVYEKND

Thymidylate synthase [16] = target: T1, Thymidylate synthase; assay: Inhibition of human thymidylate synthase expressed in Escherichia coli BL21 at 25 uM
Target sequence in this assay (P04818 2-313 limits assumed): as the sequence (P04818 2-313 limits assumed) above

[17] = Cytotoxicity against human Fibroblast at up to 100 uM after 72 hrs using crystal violet staining by spectrophotometric analysis; assay type: cell-based
Thymidylate synthase [18] = target: T1, Thymidylate synthase; assay: Inhibition of human thymidylate synthase expressed in Escherichia coli BL21
Target sequence in this assay (P04818 whole entry): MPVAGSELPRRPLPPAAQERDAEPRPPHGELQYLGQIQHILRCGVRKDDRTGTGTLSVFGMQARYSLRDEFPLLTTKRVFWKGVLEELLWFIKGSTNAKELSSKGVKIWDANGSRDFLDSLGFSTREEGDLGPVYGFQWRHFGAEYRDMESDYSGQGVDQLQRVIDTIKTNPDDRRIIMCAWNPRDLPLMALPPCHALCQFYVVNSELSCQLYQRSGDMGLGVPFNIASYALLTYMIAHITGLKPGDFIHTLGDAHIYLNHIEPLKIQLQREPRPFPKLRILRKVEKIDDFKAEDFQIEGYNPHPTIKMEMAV

Compound	inhibition (Thymidylate synthase [2])	IC50 (A2780 [3])	IC50 2008 [4]	IC50 (Vero)	IC50 [5]	IC50 (A2780 [6])	other results
COCCn1c(C)nc2c(c1=O)c1nc3ccccc3nc1n2-c1cc(C)cc(C)c1	< 5%	–	–	–	–	–	solubility [1]: Insoluble
COc1ccc(C(=O)c2nc3ccccc3nc2N2CCN(C)CC2)cc1	–	17.4 µM	18.8 µM	42.4 µM	8.3 µM	27.4 µM	–
Cc1cc(Nc2nc3ccccc3n3cnnc23)ccc1Br	< 5%	–	17 µM	20 µM	19 µM	–	–
COCCn1cnc2c(c1=O)c1nc3ccccc3nc1n2-c1ccc(Cl)c(Cl)c1	< 5%	–	31 µM	52 µM	36 µM	–	solubility [1]: Insoluble
Cc1ccc(-c2nnc3c(C(F)(F)F)nc4ccccc4n23)cc1	–	33 µM	42.5 µM	> 50 µM	26.7 µM	35.7 µM	Activity [7]: Non-toxic; inhibition (Thymidylate synthase [8]): 12.9%; Activity 2008 [9]: Non-toxic; inhibition (Thymidylate synthase [10]): 38.8%; inhibition (C13): inactive; inhibition [11]: inactive; inhibition 2008 [12]: inactive; inhibition 2008 [13]: inactive
O=C(Nc1cccc(Br)c1)c1ccc2nccnc2c1	< 5%	–	50 µM	–	50 µM	–	–
FC(F)(F)c1ccc(-c2nnc3c(C(F)(F)F)nc4ccccc4n23)cc1	–	–	–	–	–	–	inhibition (Thymidylate synthase [14]): 22%; inhibition [15]: 10%
O=C(Nc1cc(C(F)(F)F)ccc1Cl)c1ccc2nccnc2c1	< 5%	–	50 µM	–	50 µM	–	–
CN1CCN(c2nc3ccccc3n3c(-c4ccccc4)nnc23)CC1	–	18 µM	48 µM	22 µM	> 50 µM	38 µM	inhibition (Thymidylate synthase [14]): < 10%; inhibition [15]: 40%
FC(F)(F)c1nc2ccccc2n2c(-c3c(Cl)cccc3Cl)nnc12	–	27.5 µM	37 µM	10 µM	28 µM	25 µM	Activity [7]: Non-toxic; inhibition (Thymidylate synthase [8]): 32.3%; Activity 2008 [9]: Non-toxic; inhibition (Thymidylate synthase [10]): 58.9%; inhibition (C13): inactive; inhibition [11]: inactive; inhibition 2008 [12]: inactive; inhibition 2008 [13]: inactive
Cc1ccc(-c2nnc3c(N(C)C)nc4ccccc4n23)cc1	–	–	–	–	–	–	inhibition (Thymidylate synthase [14]): 41%; inhibition [15]: inactive
Cc1cccc(-c2c3c(=O)n(C)c(=O)n(C)c3c3c(C(F)(F)F)nc4ccccc4n23)c1	< 5%	–	49 µM	100 µM	55 µM	–	–
Cc1ccc(S(=O)(=O)N2CN(c3ccccc3)c3nc4ccccc4nc32)cc1	< 5%	–	50 µM	–	50 µM	–	–
Clc1ccc(Oc2nc3ccccc3n3c(-c4ccc(Cl)cc4)nnc23)cc1	–	–	–	–	–	–	inhibition (Thymidylate synthase [16]): 53%; inhibition [15]: inactive
COc1ccc(-c2nc3ccccc3n3cc4c(=O)n(C)c(=O)n(C)c4c23)cc1	< 5%	–	–	–	–	–	solubility [1]: Insoluble
Cc1ccc(-c2nc3ccccc3n3cc4c(=O)n(C)c(=O)n(C)c4c23)cc1	< 5%	–	53 µM	100 µM	56 µM	–	solubility [1]: Insoluble
FC(F)(F)c1nc2ccccc2n2c(-c3ccc(Cl)cc3)nnc12	< 5%	2.3 µM	2.5 µM	1.2 µM	3.4 µM	4.7 µM	–
Cc1ccc(S(=O)(=O)N(C)c2nc3ccccc3n3c(-c4ccccc4)nnc23)cc1	70%	–	–	–	–	–	inhibition [15]: inactive
N#Cc1c(N)n(CCc2ccccc2F)c2nc3ccccc3nc12	< 5%	–	18 µM	9.1 µM	22 µM	–	–
O=C(c1ccco1)N1N=C(c2ccc3nccnc3c2)CC1c1ccccc1 (configuration not stated)	< 5%	–	–	–	–	–	inhibition (Thymidylate synthase [14]): inactive
Clc1nc2ccccc2n2c(-c3ccccc3)nnc12	28%	2.5 µM	12.5 µM	18.2 µM	13 µM	6 µM	Activity [17]: Non-toxic; Ki (Thymidylate synthase [18]): 10 µM
O=C(CSc1nc2ccccc2nc1-c1ccccc1)N1CCCCCC1	< 5%	–	–	–	–	–	–
COc1cc(Nc2nc3cc(C(F)(F)F)ccc3nc2C)cc(OC)c1OC	–	27.5 µM	28.8 µM	40.2 µM	14.2 µM	35.3 µM	–
Fc1ccccc1-c1nnc2c(C(F)(F)F)nc3ccccc3n12	–	9 µM	17.5 µM	14 µM	27 µM	11 µM	inhibition (Thymidylate synthase [14]): 17%; inhibition [15]: 10%
C=CCn1cnc2c(c1=O)c1nc3ccccc3nc1n2CCCC	< 5%	–	–	–	–	–	solubility [1]: Insoluble
